Experimental data: US20230416258A1, “BENZ[…], AND PREPARATION METHOD THEREFOR AND USE THEREOF” (CHINA PHARMACEUTICAL UNIVERSITY, priority 2020, published 2023)
Like-named read-outs stand apart in the source and are kept apart here.

How the values were obtained:
[1] = In vitro plasma half-life of drug; assay type: in vitro ADME, SD rats; details: SD rat plasma, 37° C.; for half-life at 0.4 mg/mL: plasma (heparin sodium)
Method: Preparation of plasma: after the SD rats were fasted and kept with water for 12 h, blood was collected through orbital venous plexus. The freshly collected blood was added into a centrifuge tube containing heparin sodium and centrifuged at 5000 rpm for 10 min at 4° C. The supernatant was slowly pipetted and subpackaged. Finally, the collected SD rat plasma was sealed, marked, and stored at −20° C. for later use.
Preparation of target compound sample: the target compound was precisely weighed by an analytical balance and prepared into a stock solution at a concentration of 2 mg/mL (solvent: Vacetone:VTween 80:Vnormal saline=1:1:3) for later use.
Determination of in vitro half-life of target compound sample: 20 μL of test compound stock solution and 80 μL of rat plasma were mixed uniformly. Nine parallel ep tubes were taken, marked as corresponding test tubes of 0 min, 1 min, 2 min, 3 min, 5 min, 10 min, 15 min, 20 min, and 30 min, respectively, and placed in a water bath at 37° C. for incubation for 0 min, 1 min, 2 min, 3 min, 5 min, 10 min, 15 min, 20 min, and 30 min, respectively. 50 μL of mixed solution were taken from the corresponding ep tube at each time point, and […] of acetonitrile was added for precipitating protein. The mixture was vortexed for 10 min using a mixer and centrifuged at 12000 rpm for 15 min. Then, the supernatant was centrifuged at 12000 rpm for 10 min. The optimal detection method for the target compound in the MRM mode was determined using Intellistat software in UPLC-MS/MS, the peak area of the corresponding mass spectrum was integrated, and the plasma half-life of the compound was calculated.

SD rats [2] = assay: Induction of anesthesia in rats by continuous infusion of drug for 20 min; assay type: in vivo; details: initial dose 20 mg/kg bolus, maintenance dose 0.2 (mg/kg)/min for 20 min, after infusion completed
Method: SD rats (male, 200-280 g) were randomly grouped and subjected to administration of an initial dose by rapid bolus via the tail vein, followed by a continuous infusion with a maintenance dose for 20 min.
After the infusion was completed, the duration of the righting reflex and the time from wake-up to recovery in rats were recorded.

SD rats [3] = assay: Test for drug-induced disappearance of righting reflex in rats; assay type: in vivo; details: single rapid bolus via tail vein
Text: In anesthetic drug experiments, latency generally refers to the time from the start of administration to the loss of consciousness of the subject. The shorter latency is preferred, indicating a rapid onset of action after administration. The duration of anesthesia generally refers to the duration of time from the loss of consciousness to the restoration of consciousness of the subject. The duration of the drug will vary from animal model to animal species. Too long anesthesia may produce adverse cardiovascular and respiratory responses, such as adverse neurological effects to the subject, including sleepiness and dizziness; meanwhile, too short duration of anesthesia may affect the anesthesia effect, causing problems such as increase of anesthesia dosage during the operation.
SD rats (male, 200-280 g) were randomly grouped and subjected to a single administration by rapid bolus via the tail vein. The latency and duration of righting reflex in the rats were recorded.

[4] = test system: GABA-activated Cl− current (GABAA receptor) in HEK 293T cells; assay: Effect of drugs on GABA-activated current in cells by cell patch clamp; assay type: cell-based; details: for Enhancement percentage Emax for 2 μM GABA current (within 3-30 μM): corresponding concentration 20 μM
Method: Test compounds were dissolved at various concentrations in an extracellular buffer (140 mM NaCl, 4.7 mM KCl, 10 mM HEPES, 2 mM CaCl2), 10 mM glucose, 1 mM MgCl2, pH 7.4). HEK 293T cells were seeded on glass coverslips and cultured in DMEM media at 37° C. with 5% CO2 for 24 h. GABA Cl^− current was subjected to whole cell recording using an HEKA EPC 10USB patch clamp amplifier. 2 μM GABA was used for exciting Cl^− current, with the membrane potential clamped at −60 mV. The cells were treated with the test compound and 2 μM GABA simultaneously, and the induction effect on and Emax of Cl^− current in the same cell were recorded.
Maximum enhancement percentage Emax for 2 μM GABA current and corresponding concentration (μM): 100% for normal humans. The greater the percentage, the lower the corresponding concentration, and the greater the depth of anesthesia.

hCMEC/D3 cells = assay: Rate of drug passing through in vitro blood-brain barrier (Transwell); assay type: in vitro ADME; details: hCMEC/D3 monolayer, compound 0.1 mg/mL
Method: A Transwell device (pore size: 5.0 μm) was placed in a 24-well cell culture well; then hCMEC/D3 cells at 1×10^5 cells/mL were transferred to the upper microwells of Transwell at 150 μL/well, and cell culture medium was added to the lower microwells. After the bottom was covered by a single layer of the cells, the medium in the wells was replaced with EBM-2 complete medium containing 1% FBS, and the cells were cultured in a CO2 incubator for 10 days until a fully dense single layer of the cells was formed. When a fully dense single layer of the cells was formed, the compound at 0.1 mg/mL was added to the lower medium, and after 5 min, the concentration of the compound in the upper medium was measured to calculate the permeability:
Pcompound%=Cupper compound/Clower compound×100%

KM mice = assay: Test for drug-induced disappearance of righting reflex in mice; assay type: in vivo; details: single rapid bolus via tail vein
How it was run: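 Female KM mice (18–25 g), randomly grouped, given a single rapid bolus via tail vein. Latency (administration to loss of righting reflex) and duration (loss to recovery) recorded.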

[5] = biological target: voltage-gated potassium channel hERG (Homo sapiens (Human), UniProt Q12809); assay: Predictor hERG fluorescence polarization assay; assay type: binding
voltage-gated potassium channel hERG, sequence (Q12809 whole entry, looked up): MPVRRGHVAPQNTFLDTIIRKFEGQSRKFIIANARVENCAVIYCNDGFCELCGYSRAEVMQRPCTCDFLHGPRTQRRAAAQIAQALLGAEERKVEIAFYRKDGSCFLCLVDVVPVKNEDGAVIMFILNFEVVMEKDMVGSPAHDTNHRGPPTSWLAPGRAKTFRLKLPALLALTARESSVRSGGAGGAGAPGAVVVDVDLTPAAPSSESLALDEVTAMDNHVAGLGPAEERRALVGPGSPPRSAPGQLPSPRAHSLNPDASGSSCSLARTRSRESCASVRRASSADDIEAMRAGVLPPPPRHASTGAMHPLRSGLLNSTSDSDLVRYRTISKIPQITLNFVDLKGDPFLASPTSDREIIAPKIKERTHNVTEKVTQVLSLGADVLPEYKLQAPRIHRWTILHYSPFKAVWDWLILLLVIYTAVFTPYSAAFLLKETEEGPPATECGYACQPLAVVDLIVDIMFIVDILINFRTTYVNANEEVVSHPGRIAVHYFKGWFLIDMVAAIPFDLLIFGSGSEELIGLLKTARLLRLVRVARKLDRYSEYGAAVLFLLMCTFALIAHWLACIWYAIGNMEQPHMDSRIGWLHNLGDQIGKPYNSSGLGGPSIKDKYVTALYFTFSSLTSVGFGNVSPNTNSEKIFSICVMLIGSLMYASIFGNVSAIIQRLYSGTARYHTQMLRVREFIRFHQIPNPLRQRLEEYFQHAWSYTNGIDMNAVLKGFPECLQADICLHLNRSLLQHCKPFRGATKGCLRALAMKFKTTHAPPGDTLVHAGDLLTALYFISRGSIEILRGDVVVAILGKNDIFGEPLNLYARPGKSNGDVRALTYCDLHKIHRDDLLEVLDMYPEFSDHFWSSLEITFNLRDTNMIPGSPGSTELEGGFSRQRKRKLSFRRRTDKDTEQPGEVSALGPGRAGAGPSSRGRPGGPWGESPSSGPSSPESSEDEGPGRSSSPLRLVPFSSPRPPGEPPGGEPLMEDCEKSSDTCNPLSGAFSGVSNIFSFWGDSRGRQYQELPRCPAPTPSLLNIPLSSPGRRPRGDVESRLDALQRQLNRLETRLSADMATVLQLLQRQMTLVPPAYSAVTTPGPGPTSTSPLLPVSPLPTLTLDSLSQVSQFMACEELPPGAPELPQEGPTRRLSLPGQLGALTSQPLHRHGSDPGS
Method: In this experiment, IC50 was calculated by detecting the effect of compounds at 8 concentrations on the […]. The procedures were performed exactly as for Predictor™ hERG fluorescence polarization assay kit. Before measuring fluorescence polarization, the assay plate was covered to protect the reagents from light and evaporation, and after incubation at room temperature for 2-4 h, the sample plate was centrifuged to read the fluorescence polarization value, with the excitation light at 540 nm and the emission light at 573 nm.

[6] = read-out: Positive enhancement EC50 (μM) for 2 μM GABA-induced current, −60 mV

Row | Structure (SMILES) | half-life at 0.4 mg/mL [1] | Duration of anesthesia (SD rats [2]) | Time from wake-up to recovery (SD rats [2]) | Latency (SD rats [3]) | EC50 [4, 6] | Enhancement percentage Emax for 2 μM GABA current (within 3-30 μM) ([4]; −60 mV) | In vitro blood-brain barrier, compound permeability at 5 min (hCMEC/D3 cells) | Duration (KM mice; 30 mg/kg) | Latency (KM mice; 30 mg/kg) | Duration (KM mice; 60 mg/kg) | Latency (KM mice; 60 mg/kg) | IC50 [5] | In vitro plasma half-life [1] | Duration (SD rats [3]) | EC50 ([4]; 2 μM GABA, −60 mV, read-out: Positive enhancement EC50 (μM) for 2 μM GABA-induced current)
1 | COC(=O)CC[C@@H]1N=C(c2ccccc2F)c2cc(Br)ccc2-n2c(SCCN3CCOCC3)nnc21 [Compound 52, methyl (S)-3-(8-bromo-6-(2-fluorophenyl)-1-((2-morpholinoethyl)thio)-4H-benzo[f][1,2,4]triazolo[4,3-a][1,4]diazepin-4-yl)propionate] | 21.6 s | 6.25 min | 16.2 min | 0.33 min | 0.47 µM | 293% (20 μM) | 80.1% | 5.38 min | 1.3 min | 7.22 min | 0.94 min | – | – | – | –
2 | COC(=O)CC[C@@H]1N=C(c2ccccc2F)c2cc([N+](=O)[O-])ccc2-n2c(SCCN3CCOCC3)nnc21 [Compound 53, methyl (S)-3-(8-nitro-6-(2-fluorophenyl)-1-((2-morpholinoethyl)thio)-4H-benzo[f][1,2,4]triazolo[4,3-a][1,4]diazepin-4-yl)propionate] | 19.8 s | 4.17 min | 13.5 min | 0.18 min | 0.53 µM | 285% (20 μM) | 69.9% | – | – | 9.98 min | 0.42 min | – | – | – | –
3 | COC(=O)CC[C@@H]1N=C(c2ccccc2F)c2cc([N+](=O)[O-])ccc2-n2c(SCCCN(C)C)nnc21 [Compound 59, methyl (S)-3-(8-nitro-1-((3-(dimethylamino)propyl)thio)-6-(2-fluorophenyl)-4H-benzo[f][1,2,4]triazolo[4,3-a][1,4]diazepin-4-yl)propionate] | 15 s | 4.89 min | 31.3 min | 0.22 min | 0.79 µM | 252% (20 μM) | 75.7% | – | – | 9.62 min | 0.37 min | – | – | – | –
4 | COC(=O)CC[C@@H]1N=C(c2ccccc2Cl)c2cc(Br)ccc2-n2c(SCCN3CCOCC3)nnc21 [Compound 82, methyl (S)-3-(8-bromo-6-(2-chlorophenyl)-1-((2-morpholinoethyl)thio)-4H-benzo[f][1,2,4]triazolo[4,3-a][1,4]diazepin-4-yl)propionate] | 22.2 s | 10.27 min | 20.8 min | 0.41 min | 0.39 µM | 311% (20 μM) | 80.1% | 8.37 min | 0.31 min | – | – | – | – | – | –
5 | COC(=O)CC[C@@H]1N=C(c2ccccc2Cl)c2cc([N+](=O)[O-])ccc2-n2c(SCCN3CCOCC3)nnc21 [Compound 83, methyl (S)-3-(8-nitro-6-(2-chlorophenyl)-1-((2-morpholinoethyl)thio)-4H-benzo[f][1,2,4]triazolo[4,3-a][1,4]diazepin-4-yl)propionate] | 16.8 s | 28.66 min | 16.3 min | 0.16 min | 0.57 µM | 287% (20 μM) | 77.3% | 7.89 min | 0.28 min | 14.58 min | 0.19 min | – | – | – | –
6 | COC(=O)CC[C@@H]1N=C(c2ccccc2Cl)c2cc(Br)ccc2-n2c(SCCCN3CCN(CCO)CC3)nnc21 [Compound 97, methyl (S)-3-(8-bromo-6-(2-chlorophenyl)-1-((3-(4-(2-hydroxyethyl)piperazin-1-yl)propyl)thio)-4H-benzo[f][1,2,4]triazolo[4,3-a][1,4]diazepin-4-yl)propionate] | 36.6 s | 6.43 min | 17.4 min | 0.18 min | 0.84 µM | 238% (20 μM) | 84.6% | – | – | 17.07 min | 0.93 min | – | – | – | –
7 | COC(=O)CC[C@@H]1N=C(c2ccccc2)c2cc(Cl)ccc2-n2c(SC)nnc21 [Compound 102, methyl (S)-3-(8-chloro-1-(methylthio)-6-phenyl-4H-benzo[f][1,2,4]triazolo[4,3-a][1,4]diazepin-4-yl)propionate] | 16.2 s | 4.27 min | 25.5 min | 0.37 min | 0.48 µM | 291% (20 μM) | 87.1% | 17.24 min | 1.13 min | 7.47 min | 0.39 min | – | – | – | –
8 | Cc1ncc2n1-c1ccc(Cl)cc1C(c1ccccc1F)=NC2 [Midazolam, reference compound] | – | – | – | – | – | – | – | – | – | – | – | 7090 nM | – | – | –
9 | COC(=O)CC[C@@H]1N=C(c2ccccc2F)c2cc(Cl)ccc2-n2c1n[nH]c2=S [Tautomer of compound 1, methyl (S)-3-(8-chloro-6-(2-fluorophenyl)-1-thio-2,4-dihydro-1H-benzo[f][1,2,4]triazolo[4,3-a][1,4]diazepin-4-yl)propionate] | – | 3.29 min | 9.6 min | 0.68 min | – | 234% (20 μM) | 76.8% | 3.47 min | 0.21 min | – | – | – | 279 s | 11.03 min | 0.72 µM
